Source: US8901118B2, “Compounds and methods for kinase modulation, and indications therefor” (Plexxikon Inc., priority 2010, dated 2014)

What was measured:
BCR-NTRK2 BaF3 cells = target: T1, BCR-NTRK2 BaF3 cells (Homo sapiens, UniProt Q16620); test: BaF3 BCR-NTRK2 cell proliferation assay (ATPlite); format: cell-based; details: read-out: Inhibition of Cell Proliferation IC50, BCR/BaF3 TrkB
T1 construct: fused on or other part: P11274 (Breakpoint cluster region protein)
In short: (§1)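 ATP-based luminescence (ATPlite), read after 10 min at room temperature, served as a proxy for cell number, and IC50 was fitted against compound concentration. Before that, cells were treated for 3 days with an 8-point 1:3 dilution series starting at 10 μM. BaF3 cells were plated at 10,000/well without IL-3, and MV-4-11 cells at 25,000/well.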

Fms kinase = Fms kinase (Homo sapiens, UniProt P07333); test: Fms kinase biochemical activity assay (AlphaScreen, biotin-(E4Y)10 phosphorylation); details: 100 μM ATP; read-out: Biochemical Inhibition IC50 Fms
Sequence of Fms kinase (P07333 20-972): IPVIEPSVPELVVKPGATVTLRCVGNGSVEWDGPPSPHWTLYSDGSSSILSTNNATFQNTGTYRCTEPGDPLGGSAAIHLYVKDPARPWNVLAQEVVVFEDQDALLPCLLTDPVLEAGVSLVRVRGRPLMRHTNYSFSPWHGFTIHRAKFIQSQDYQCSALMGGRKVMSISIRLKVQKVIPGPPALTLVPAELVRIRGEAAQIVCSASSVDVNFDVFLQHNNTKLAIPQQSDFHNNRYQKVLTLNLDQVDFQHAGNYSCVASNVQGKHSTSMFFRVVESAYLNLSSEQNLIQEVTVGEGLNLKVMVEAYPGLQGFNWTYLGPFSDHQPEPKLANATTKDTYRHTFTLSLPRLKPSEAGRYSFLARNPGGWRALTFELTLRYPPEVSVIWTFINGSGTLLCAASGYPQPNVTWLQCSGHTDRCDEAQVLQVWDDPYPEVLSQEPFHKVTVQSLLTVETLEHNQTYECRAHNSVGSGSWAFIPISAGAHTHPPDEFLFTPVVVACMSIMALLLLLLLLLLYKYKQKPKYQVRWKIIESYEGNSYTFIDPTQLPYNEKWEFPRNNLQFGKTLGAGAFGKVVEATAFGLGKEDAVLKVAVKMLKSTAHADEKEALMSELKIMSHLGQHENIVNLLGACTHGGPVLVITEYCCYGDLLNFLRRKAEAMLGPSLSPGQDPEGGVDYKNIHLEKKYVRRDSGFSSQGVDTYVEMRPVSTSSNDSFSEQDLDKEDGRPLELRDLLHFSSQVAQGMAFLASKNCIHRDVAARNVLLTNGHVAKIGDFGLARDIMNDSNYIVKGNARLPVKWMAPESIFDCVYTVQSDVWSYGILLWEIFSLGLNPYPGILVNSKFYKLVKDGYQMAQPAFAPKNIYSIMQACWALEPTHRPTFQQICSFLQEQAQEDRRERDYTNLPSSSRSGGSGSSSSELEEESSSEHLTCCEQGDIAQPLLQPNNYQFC
In short: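 Fms kinase (1 ng/well) phosphorylating 30 nM biotin-(E4Y)10 with 100 μM ATP in 25 mM Hepes pH 7.5, MgCl2/MnCl2, 5% DMSO, 20 min at 30 °C. Phosphotyrosine detected by AlphaScreen streptavidin donor and PY20 acceptor beads; IC50 from signal versus compound concentration.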

BCR-FMS BaF3 cells = target: T2, BCR-FMS BaF3 cells (Homo sapiens, UniProt P07333); test: BaF3 BCR-FMS cell proliferation assay (ATPlite); format: cell-based; details: read-out: Inhibition of Cell Proliferation IC50, BCR/BaF3 Fms
T2 construct: fused on or other part: P11274 (Breakpoint cluster region protein)
T2 sequence (P07333 582-910): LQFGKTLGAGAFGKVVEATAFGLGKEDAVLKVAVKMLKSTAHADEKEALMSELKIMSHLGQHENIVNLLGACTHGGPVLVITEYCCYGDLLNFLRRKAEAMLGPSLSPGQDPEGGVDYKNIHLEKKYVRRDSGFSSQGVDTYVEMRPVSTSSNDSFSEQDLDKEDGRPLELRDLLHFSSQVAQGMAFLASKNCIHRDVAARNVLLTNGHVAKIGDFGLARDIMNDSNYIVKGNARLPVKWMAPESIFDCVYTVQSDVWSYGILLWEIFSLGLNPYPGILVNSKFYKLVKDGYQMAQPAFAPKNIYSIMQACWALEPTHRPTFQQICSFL
In short: as §1

BCR-NTRK3 BaF3 cells = target: T3, BCR-NTRK3 BaF3 cells (Homo sapiens, UniProt Q16288); test: BaF3 BCR-NTRK3 cell proliferation assay (ATPlite); format: cell-based; details: read-out: Inhibition of Cell Proliferation IC50, BCR/BaF3 TrkC
T3 construct: fused on or other part: P11274 (Breakpoint cluster region protein)
T3 sequence (Q16288 whole entry, the tested form may be a part): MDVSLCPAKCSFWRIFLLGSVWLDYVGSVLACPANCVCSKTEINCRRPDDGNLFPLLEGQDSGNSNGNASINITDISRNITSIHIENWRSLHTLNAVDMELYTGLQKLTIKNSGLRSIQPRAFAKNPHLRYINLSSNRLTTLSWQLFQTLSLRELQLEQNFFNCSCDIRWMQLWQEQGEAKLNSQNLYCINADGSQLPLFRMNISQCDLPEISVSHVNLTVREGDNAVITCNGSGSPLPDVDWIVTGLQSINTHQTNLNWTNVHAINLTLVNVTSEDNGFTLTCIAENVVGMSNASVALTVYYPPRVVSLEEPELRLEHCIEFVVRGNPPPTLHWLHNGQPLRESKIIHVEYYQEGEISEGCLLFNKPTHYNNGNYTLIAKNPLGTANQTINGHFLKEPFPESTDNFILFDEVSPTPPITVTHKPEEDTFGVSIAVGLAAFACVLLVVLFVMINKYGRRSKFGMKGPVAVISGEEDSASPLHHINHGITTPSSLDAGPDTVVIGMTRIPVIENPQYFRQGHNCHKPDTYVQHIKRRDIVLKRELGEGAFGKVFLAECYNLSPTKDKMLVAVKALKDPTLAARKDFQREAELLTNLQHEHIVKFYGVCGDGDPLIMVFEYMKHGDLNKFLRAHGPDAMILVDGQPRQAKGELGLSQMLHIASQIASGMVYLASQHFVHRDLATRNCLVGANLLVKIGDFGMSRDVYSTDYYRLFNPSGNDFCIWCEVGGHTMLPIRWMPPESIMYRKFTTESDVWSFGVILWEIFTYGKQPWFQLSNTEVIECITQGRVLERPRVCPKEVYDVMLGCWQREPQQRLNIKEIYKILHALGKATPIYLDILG
In short: as §1

T1 sequence (Q16620 538-807): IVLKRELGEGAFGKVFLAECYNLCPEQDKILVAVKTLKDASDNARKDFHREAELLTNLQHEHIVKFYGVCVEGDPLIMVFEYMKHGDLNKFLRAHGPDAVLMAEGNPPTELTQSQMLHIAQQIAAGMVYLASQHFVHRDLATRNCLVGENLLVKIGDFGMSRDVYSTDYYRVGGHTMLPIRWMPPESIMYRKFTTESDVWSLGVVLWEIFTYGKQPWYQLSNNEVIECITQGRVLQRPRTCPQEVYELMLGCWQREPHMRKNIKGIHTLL

| Compound | IC50 (BCR-NTRK2 BaF3 cells) | IC50 (Fms kinase) | IC50 (BCR-FMS BaF3 cells) | IC50 (BCR-NTRK3 BaF3 cells) |
| --- | --- | --- | --- | --- |
| CC(C)=CNc1ncnc2[nH]cc(C(=O)c3ccc(NC4CCC(F)(F)CC4)nc3Cl)c12 [Compound P-4047, [2-chloro-6-[(4,4-difluorocyclohexyl)amino]-3-pyridyl]-[4-(2-methylprop-1-enylamino)-7H-pyrrolo[2,3-d]pyrimidin-5-yl]methanone] | > 1000 nM | > 1000 nM | > 1000 nM | > 1000 nM |
| Nc1ncnc2[nH]cc(C(=O)c3ccc(NC4CCC(F)(F)CC4)nc3Cl)c12 [Compound P-4046, (4-amino-7H-pyrrolo[2,3-d]pyrimidin-5-yl)-[2-chloro-6-[(4,4-difluorocyclohexyl)amino]-3-pyridyl]methanone] | < 1000 nM | < 100 nM | < 100 nM | < 1000 nM |
| Clc1cnc2[nH]cc(Cc3cnc(NC4CCC4)nc3)c2c1 [Compound P-3007, [5-(5-Chloro-1H-pyrrolo[2,3-b]pyridin-3-ylmethyl)-pyrimidin-2-yl]-cyclobutyl-amine] | > 10000 nM | < 1000 nM | < 1000 nM | > 10000 nM |
| O=C(c1cnc(NC2CCC(F)(F)CC2)c(F)c1)c1c[nH]c2ncnc(NCC(F)(F)F)c12 [Compound P-4052, [6-[(4,4-difluorocyclohexyl)amino]-5-fluoro-3-pyridyl]-[4-(2,2,2-trifluoroethylamino)-7H-pyrrolo[2,3-d]pyrimidin-5-yl]methanone] | < 1000 nM | < 1000 nM | < 1000 nM | < 10 nM |
| O=C(c1ccc(Nc2ccc(C3CC3)nc2)nc1F)c1c[nH]c2ncnc(C3CC3)c12 [Compound P-4040, [6-(6-Cyclopropyl-pyridin-3-ylamino)-2-fluoro-pyridin-3-yl]-(4-cyclopropyl-7H-pyrrolo[2,3-d]pyrimidin-5-yl)-methanone] | < 10 nM | < 100 nM | < 100 nM | < 10 nM |
| CCNc1ncnc2[nH]cc(C(=O)c3ccc(NC4CCC(F)(F)CC4)nc3Cl)c12 [Compound P-4050, [2-chloro-6-[(4,4-difluorocyclohexyl)amino]-3-pyridyl]-[4-(ethylamino)-7H-pyrrolo[2,3-d]pyrimidin-5-yl]methanone] | < 1000 nM | < 1000 nM | < 1000 nM | < 1000 nM |
| CCNc1ncnc2[nH]cc(C(=O)c3cnc(NC4CCC(F)(F)CC4)c(F)c3)c12 [Compound P-4051, [6-[(4,4-difluorocyclohexyl)amino]-5-fluoro-3-pyridyl]-[4-(ethylamino)-7H-pyrrolo[2,3-d]pyrimidin-5-yl]methanone] | < 10 nM | < 1000 nM | < 1000 nM | < 10 nM |
| Cc1cnc2[nH]cc(Cc3ccc(NC4CCCCC4)nc3F)c2c1 [Compound P-3008, cyclohexyl-[6-fluoro-5-(5-methyl-1H-pyrrolo[2,3-b]pyridin-3-ylmethyl)-pyridin-2-yl]-amine] | – | < 100 nM | < 100 nM | – |

More lines, now with the values ahead:

| IC50 (BCR-NTRK2 BaF3 cells) | IC50 (Fms kinase) | IC50 (BCR-FMS BaF3 cells) | IC50 (BCR-NTRK3 BaF3 cells) | Compound |
| --- | --- | --- | --- | --- |
| < 10 nM | < 100 nM | < 10 nM | < 10 nM | Fc1nc(Nc2ccc(C3CC3)nc2)ccc1Cc1c[nH]c2ncnc(C3CC3)c12 [Compound P-4041, (6-Cyclopropyl-pyridin-3-yl)-[5-(4-cyclopropyl-7H-pyrrolo[2,3-d]pyrimidin-5-ylmethyl)-6-fluoro-pyridin-2-yl]-amine] |
| < 1000 nM | < 10 nM | < 1000 nM | < 10 nM | CNc1ncnc2[nH]cc(C(=O)c3cnc(NC4CCC(F)(F)CC4)c(F)c3)c12 [Compound P-4054, [6-[(4,4-difluorocyclohexyl)amino]-5-fluoro-3-pyridyl]-[4-(methylamino)-7H-pyrrolo[2,3-d]pyrimidin-5-yl]methanone] |
| < 10 nM | < 10 nM | < 1000 nM | < 10 nM | O=C(c1cnc(NC2CCC(F)(F)CC2)c(F)c1)c1c[nH]c2ncnc(NC3CC3)c12 [Compound P-4053, [4-(cyclopropylamino)-7H-pyrrolo[2,3-d]pyrimidin-5-yl]-[6-[(4,4-difluorocyclohexyl)amino]-5-fluoro-3-pyridyl]methanone] |
| < 10 nM | < 10 nM | < 10 nM | < 10 nM | Nc1ncnc2[nH]cc(C(=O)c3ccc(Nc4ccc(C5CC5)nc4)nc3F)c12 [Compound P-4048, (4-amino-7H-pyrrolo[2,3-d]pyrimidin-5-yl)-[6-[(6-cyclopropyl-3-pyridyl)amino]-2-fluoro-3-pyridyl]methanone] |
| < 1000 nM | < 10 nM | < 1000 nM | < 1000 nM | CC(C)(O)CNc1ncnc2[nH]cc(C(=O)c3ccc(Nc4ccc(C5CC5)nc4)nc3F)c12 [Compound P-4049, [6-[(6-cyclopropyl-3-pyridyl)amino]-2-fluoro-3-pyridyl]-[4-[(2-hydroxy-2-methyl-propyl)amino]-7H-pyrrolo[2,3-d]pyrimidin-5-yl]methanone] |
